Measured values as given in patent publication US20250049036A1 (priority 2021, published 2025).

Legend:
Parastagonospora nodorum = Parastagonospora nodorum (PARANO) spore growth inhibition in liquid medium, 96-well microtiter plate, OD 600; type: cell-based; settings: spore suspension in PDB liquid medium, 18° C., 5-6 days, OD at 600, read-out: control compared to the untreated check
Method: Potato dextrose (PDB) liquid medium (Difco) containing a PARANO (10^5 spores/ml) spore suspension was prepared. For the inhibition assay, each test compound was solved in dimethyl sulfoxide. 100 μl of the test compound in media-solution was added to a 96-well microtiter plate, consequently, the same volume (100 μl) of spore suspension was added to the well making the final test concentrations and the plate was incubated at 18° C. for 5-6 days. The growth inhibition was evaluated by measuring the OD at 600. Percent inhibition was calculated with the below formula: […]

Pyricularia oryzae = assay: microbe, parasite or virus in culture; type: cell-based; settings: 168 h, read-out: control compared to the untreated check
Phakopsora pachyrhizi = Phakopsora pachyrhizi test on soybean, preventive, greenhouse; type: in vivo; settings: preventive spray on soybean, inoculated one day after treatment, read-out: control (efficacy, disease severity) compared to the untreated check
Method: The respective compound was dissolved in 2% dimethyl sulfoxide/acetone and then mixed with water containing emulsifier to the calibrated spray volume of 30 mL. Each spray solution was poured into a spray bottle for further application.
To test the preventive activity of a compound, healthy young soybean plants, raised in the greenhouse, were sprayed with the active compound preparation at the stated application rate inside the spray cabinets using hollow cone nozzles. One day after treatment, the plants were inoculated with a conidial suspension containing 2×10^5 Phakopsora pachyrhizi inoculum. The inoculated plants were then kept in a greenhouse chamber at 22-24° C. temperature and 80-90% relative humidity for disease expression.

Colletotrichum capsici = Colletotrichum capsici (anthracnose) mycelial radial growth on potato dextrose agar; type: cell-based; settings: Colletotrichum truncatum, 168 h, 25° C., seven days, read-out: control compared to the untreated check
Method: The compounds were dissolved in 0.3% dimethyl sulfoxide and then added to potato dextrose agar medium just prior to dispensing it into petri dishes. 5 mL medium, with the compound in the desired concentration, was dispensed into 60 mm sterile petri-plates. After solidification, each plate was seeded with a 5 mm size mycelial disc taken from the periphery of an actively growing virulent culture plate. The plates were incubated in growth chambers at 25° C. temperature and 60% relative humidity for seven days and the radial growth was measured and compared to the one of the untreated control.

Botrytis cinerea = Botrytis cinerea test on tomato, preventive, greenhouse; type: in vivo; settings: preventive spray on bean/chili plants (heading: tomato), inoculated one day after treatment, read-out: control (efficacy, disease severity) compared to the untreated check

Structure (SMILES) | inhibition of growth at 300 ppm (Parastagonospora nodorum) | inhibition of growth at 300 ppm (Pyricularia oryzae) | pest or weed control at 500 ppm (Phakopsora pachyrhizi) | inhibition of growth at 300 ppm (Colletotrichum capsici) | pest or weed control at 500 ppm (Botrytis cinerea)
Cn1ccc2cc(C(=O)NC(C)(C)Cc3ccc(F)c(F)c3)cnc21 [Compound 23, N-(1-(3,4-difluorophenyl)-2-methylpropan-2-yl)-1-methyl-1H-pyrrolo[2,3-b]pyridine-5-carboxamide] | ≥ 70% | ≥ 70% | ≥ 70% | ≥ 70% | 
CC(Cc1ccccc1)(CC(F)(F)F)NC(=O)c1cnc2ccsc2c1 (stereo not shown) [Compound 25, N-(4,4,4-trifluoro-2-methyl-1-phenylbutan-2-yl)thieno[3,2-b] pyridine-6-carboxamide] | ≥ 70% | ≥ 70% | ≥ 70% | ≥ 70% | 
CC(C)CC(C)(Cc1ccccc1)NC(=O)c1cnc2ccsc2c1 (stereo not shown) [Compound 29, N-(2,4-dimethyl-1-phenylpentan-2-yl)thieno[3,2-b] pyridine-6-carboxamide] |  | ≥ 70% | ≥ 70% | ≥ 70% | 
Cc1nc2c(ccn2C)cc1C(=O)NC(C)(Cc1ccccc1)CC(C)C (stereo not shown) [Compound 34, N-(2,4-dimethyl-1-phenylpentan-2-yl)-1,6-dimethyl-1H-pyrrolo[2,3-b]pyridine-5-carboxamide] | ≥ 70% | ≥ 70% | ≥ 70% | ≥ 70% | 
Cc1nc2c(ccn2C)cc1C(=O)NC(C)(C)C(C)c1ccccc1F (stereo not shown) [Compound 35, N-(3-(2-fluorophenyl)-2-methylbutan-2-yl)-1,6-dimethyl-1H-pyrrolo[2,3-b]pyridine-5-carboxamide] |  |  | ≥ 70% |  | ≥ 70%
CC(C)CC(C)(Cc1ccccc1F)NC(=O)c1cnc2c(ccn2C)c1 (stereo not shown) [Compound 36, N-(1-(2-fluorophenyl)-2,4-dimethylpentan-2-yl)-1-methyl-1H-pyrrolo[2,3-b]pyridine-5-carboxamide] | ≥ 70% | ≥ 70% |  | ≥ 70% | 
CC(C)(Cc1ccccc1)NC(=O)c1cnc2c(c1)CCCC2 [Compound 45, N-(2-methyl-1-phenylpropan-2-yl)-5,6,7,8-tetrahydroquinoline-3-carboxamide] | ≥ 70% |  | ≥ 70% | ≥ 70% | 
Cn1cc(Br)c2cc(C(=O)NC(C)(C)Cc3ccccc3)cnc21 [Compound 46] |  | ≥ 70% | ≥ 70% |  | ≥ 70%
Cn1cc(C2CC2)c2cc(C(=O)NC(C)(C)Cc3ccccc3)cnc21 [Compound 54, 3-cyclopropyl-1-methyl-N-(2-methyl-1-phenylpropan-2-yl)-1H-pyrrolo[2,3-b] pyridine-5-carboxamide] |  |  | ≥ 70% |  | ≥ 70%
CN(C(=O)c1cnc2c(c1)c(Cl)cn2C)C(C)(C)Cc1ccccc1 [Compound 56, 3-chloro-N,1-dimethyl-N-(2-methyl-1-phenylpropan-2-yl)-1H-pyrrolo[2,3-b] pyridine-5-carboxamide] | ≥ 70% | ≥ 70% | ≥ 70% |  | 
CN(C(=O)c1cnc2c(c1)c(C1CC1)cn2C)C(C)(C)Cc1ccccc1 [Compound 57, 3-cyclopropyl-N,1-dimethyl-N-(2-methyl-1-phenylpropan-2-yl)-1H-pyrrolo[2,3-b] pyridine-5-carboxamide] |  |  | ≥ 70% |  | ≥ 70%
Cn1ccc2cc(C(=O)NC(C)(C)Cc3ccc(Br)cc3)cnc21 [Compound 61, N-(1-(4-bromophenyl)-2-methylpropan-2-yl)-1-methyl-1H-pyrrolo[2,3-b]pyridine-5-carboxamide] |  |  |  |  | ≥ 70%
CC(c1ccccc1F)C(C)(C)NC(=O)c1cnc2c(c1)c(C1CC1)cn2C (stereo not shown) [Compound 65, 3-cyclopropyl-N-(3-(2-fluorophenyl)-2-methylbutan-2-yl)-1-methyl-1H-pyrrolo[2,3-b]pyridine-5-carboxamide] |  | ≥ 70% | ≥ 70% |  | 
Cn1cc(F)c2cc(C(=O)NC(C)(C)Cc3ccc(Cl)cc3)cnc21 [Compound 66, N-(1-(4-chlorophenyl)-2-methylpropan-2-yl)-3-fluoro-1-methyl-1H-pyrrolo[2,3-b]pyridine-5-carboxamide] |  |  | ≥ 70% |  | ≥ 70%
Cn1ccc2cc(C(=O)NC(C)(C)Cc3ccc(F)cc3)cnc21 [Compound 74, N-(1-(4-fluorophenyl)-2-methylpropan-2-yl)-1-methyl-1H-pyrrolo[2,3-b]pyridine-5-carboxamide] |  |  |  |  | ≥ 70%
Cn1ccc2cc(C(=O)NC3Cc4ccccc4C3)cnc21 [Compound 76, N-(2,3-dihydro-1H-inden-2-yl)-1-methyl-1H-pyrrolo[2,3-b] pyridine-5-carboxamide] |  |  | ≥ 70% |  | ≥ 70%
Cn1cc(Br)c2cc(C(=O)NC(C)(C)Cc3ccccc3Cl)cnc21 [Compound 84, 3-bromo-N-(1-(2-chlorophenyl)-2-methylpropan-2-yl)-1-methyl-1H-pyrrolo[2,3-b]pyridine-5-carboxamide] |  |  | ≥ 70% |  | ≥ 70%
CSc1ccc(C(NC(=O)c2cnc3c(ccn3C)c2)C(C)C)cc1 (stereo not shown) [Compound 90] | ≥ 70% |  |  | ≥ 70% | 
Cc1nc2[nH]ccc2cc1C(=O)NC(C)(Cc1ccccc1)CC(C)C (stereo not shown) [Compound 96, N-(2,4-dimethyl-1-phenylpentan-2-yl)-6-methyl-1H-pyrrolo[2,3-b]pyridine-5-carboxamide] |  |  | ≥ 70% |  | ≥ 70%
Cc1nc2[nH]ccc2cc1C(=O)NC1(Cc2ccccc2)CC1 [Compound 97, N-(1-benzylcyclopropyl)-6-methyl-1H-pyrrolo[2,3-b]pyridine-5-carboxamide] |  |  | ≥ 70% |  | ≥ 70%
Cn1ccc2cc(C(=O)NC(C)(C)C(O)Cc3ccccc3)cnc21 (stereo not shown) [Compound 116, N-(3-hydroxy-2-methyl-4-phenylbutan-2-yl)-1-methyl-1H-pyrrolo[2,3-b]pyridine-5-carboxamide] |  |  |  | ≥ 70% | 
CCC(O)(CC)C(NC(=O)c1cnc2c(ccn2C)c1)c1ccccc1 (stereo not shown) [Compound 120, N-(2-ethyl-2-hydroxy-1-phenylbutyl)-1-methyl-1H-pyrrolo[2,3-b]pyridine-5-carboxamide] |  |  |  |  | ≥ 70%
C=C(C)CC(C)(COc1ccc(F)cc1)NC(=O)c1cnc2ccsc2c1 (stereo not shown) [Compound 122, N-(1-(4-fluorophenoxy)-2,4-dimethylpent-4-en-2-yl)thieno[3,2-b] pyridine-6-carboxamide] |  |  |  | ≥ 70% | ≥ 70%
COc1cc(C(=O)OCC(C)(C)NC(=O)c2cnc3ccsc3c2)ccc1F [Compound 124, 2-methyl-2-(thieno[3,2-b]pyridine-6-carboxamido)propyl 4-fluoro-3-methoxybenzoate] | ≥ 70% | ≥ 70% |  |  | ≥ 70%
Cc1ccc(F)cc1C(O)C(C)(C)NC(=O)c1cnc2ccsc2c1 (stereo not shown) [Compound 133, N-(1-(5-fluoro-2-methylphenyl)-1-hydroxy-2-methylpropan-2-yl)thieno[3,2-b] pyridine-6-carboxamide] |  | ≥ 70% | ≥ 70% |  | 
C[C@H](NC(=O)c1cnc2c(ccn2C)c1)C(O)(c1cc(Cl)cc(Cl)c1)c1cc(Cl)cc(Cl)c1 [Compound 141] |  | ≥ 70% | ≥ 70% |  | 
CC(C)(COC(=O)c1ccccc1C(F)(F)F)NC(=O)c1cnc2c(c1)CCCC2 [Compound 150, 2-methyl-2-(5,6,7,8-tetrahydroquinoline-3-carboxamido)propyl 2-(trifluoromethyl)benzoate] | ≥ 70% |  | ≥ 70% |  | ≥ 70%
C=C(C)CC(C)(Cc1ccc(F)cc1)NC(=O)c1cnc2c(ccn2C)c1 (stereo not shown) [Compound 181, N-(1-(4-fluorophenyl)-2,4-dimethylpent-4-en-2-yl)-1-methyl-1H-pyrrolo[2,3-b]pyridine-5-carboxamide] | ≥ 70% |  |  | ≥ 70% | 
CC(C)CC(C)(Cc1ccccc1)NC(=O)c1cc2c(nc1Cl)CCC2 (stereo not shown) [Compound 211, 2-chloro-N-(2,4-dimethyl-1-phenylpentan-2-yl)-6,7-dihydro-5H-cyclopenta[b]pyridine-3-carboxamide] | ≥ 70% |  |  | ≥ 70% | 
